Experimental data from patent US20090030037A1, “Sustained Release Formulation and Dosing Schedules of Leukotriene Synthesis Inhibitor for Human Therapy” (deCODE Genetics ehf., priority 2005, published 2009).

What was measured:
Format in all cases: in vivo, human
[1] = Steady-state DG-031 plasma concentrations and half-life, studies DG-031-201 and DG-031-203; settings: humans
Source text: Maintaining the minimum concentration using TIED dosing requires only about 70% of the drug that is required for a BID schedule. TID dosing is a more efficient process in terms of drug utilization when the goal is maintaining concentrations above a minimum threshold. It has the added advantage of reducing a patient's total exposure to the drug.

[2] = system: CRP; assay: Study DG-031-201: Hs-CRP in serum; settings: for CRP, change: Study 201, 2-6 wks
Protocol: Genet. 2004). Apart from FLAP, allele A of the SNP SG12S25 in the LTA4 hydrolase gene, another gene in the LT pathway, is also associated with MI, as described in PCT application no. PCT/US03/32556 and PCT/US04/30582 incorporated by reference.
(§1) Patients who met the study eligibility criteria were enrolled and randomized into 3 different dose-level groups: (1) 64 patients on 250 mg/day therapy with DG-031 (250 mg q.d.), vs placebo; (2) 64 patients on 500 mg/day therapy with DG-031 (250 mg b.i.d.) vs placebo; and (3) 63 patients on 750 mg/day therapy with DG-031 (250 mg t.i.d.) vs placebo. […] All patients received 3 tablets per day. Treatment periods, 4 weeks in duration each, were separated by a 2-week washout period. The placebo tablets were identical in shape, color, form and taste to the active tablets except that they contained no active drug ingredients. Treatment with DG-031 or placebo was in addition to the subject's standard care, including all medications and treatment plan as prescribed by the subject's cardiologist prior to enrolment. A total of 191 subjects were enrolled, with 172 completing all 8 visits or 8 patients short of the target of 180 patients.
The primary objective was to determine whether the FLAP inhibitor has a statistically significant effect, compared to placebo, on one or more biomarkers of MI risk, including: (1) ionomycin-induced LTB4 and MPO release by neutrophils ex vivo; (2) MPO, CRP, N-tyrosine, Lp-PLA2 or amyloid A in serum, or (3) LTE4 in urine. The secondary objective was to determine whether the effect of DG-031 was dose-dependent. The tertiary objective was to assess other biomarkers (See Results). Evaluation of safety and tolerability of the drug was also a primary endpoint.
All data were analyzed according to a pre-established statistical analysis plan (SAP) and by intention-to-treat (ITT). Each arm of the study, as well as pooled sets (combining dose levels), was considered for the primary analysis. Each such set is an AB/BA cross-over design and in the primary analysis of efficacy, the levels of biomarkers of MI risk at the end of the treatment periods (visits 4 and 7) were used as primary response variables. The difference between DG-031 and placebo treatment was the primary outcome, assessed separately for each of the biomarkers. Treatment effect was tested using a two-sample t-test on the period differences for suitably transformed response variables, under an assumption of normality of the transformed data. We report treatment effect as one half of the observed mean differences in the two-sample t-test, with a 95% CI. No pre-tests for carry-over effect were performed as a part of the primary analysis. Tests for carry-over were done and are reported separately from results of primary analysis. All hypotheses were tested at a two-sided nominal significance level of 0.05 and p-values based on t-tests are reported. In addition, for the primary efficacy endpoints where the effects of the two highest doses on 10 primary variables were studied, a randomization test was performed which corrects for multiple testing and ensures that the key results are not affected by distributional concerns. In particular, 1 million permutations of the patients into the different study tracks were performed, generating a reference distribution for the maximum of the 10 t-statistics of the biomarkers under the null hypothesis of no drug effect. By comparing the observed t-statistic of each of the 10 biomarkers to this reference distribution, empirical p-values were computed. As was stated in the SAP prior to unblinding, it was considered likely that experimental manipulations would alter the effect of the drug on two of the primary markers; this was indeed the case and we are only reporting directly on 8 of the 10 primary markers but all 10 are included in the randomization test. […]

[3] = system: sICAM; assay: Study DG-031-201: ICAM (sICAM-1); settings: [0%,6%], p=0.03
Protocol: as §1, with “patients. […]” for “patients.”
All data were analyzed according to a pre-established statistical analysis plan (SAP) and by intention-to-treat (ITT). […] The difference between DG-031 and placebo treatment was the primary outcome, assessed separately for each of the biomarkers. […]

[4] = system: MPO; assay: Study DG-031-203: plasma MPO; settings: 250 mg TID, 6 hours after intake
Protocol: The study also collected information on the dose-related effect of DG-031 on capacity for LTB4 production (ex vivo), plasma MPO, and serum-CRP. […] The pattern observed supported a concentration dependent pharmacologic effect of DG-031 on capacity for LTB4 production measured ex vivo. The effects on LTB4 production amounted to a 30% (p=0.016) and 25% (p=0.094) reduction with the 375 mg BID and 250 mg TID doses, respectively.

In the case of `O=C(O)[C@@H](c1ccc(OCc2ccc3ccccc3n2)cc1)C1CCCC1` [DG-031, (R)-(+)-alpha-cyclopentyl-4-(2-quinolinylmethoxy)-Benzeneacetic acid], the Dominant half-life [1] is reported as 2.5 to 3 h, the “Reduction in CRP” value ([2]; 250 mg BID and TID, end of wash-out period (week 6)) is reported as 25% and the “CRP, change” value ([2]; 250 mg BID) is reported as −24%. The “CRP, change” value ([2]; 250 mg QD) was −6%, the “CRP, change” value ([2]; 250 mg TID) was −13% (St. 201) and the “Carry-over effect, CRP” value ([2]; difference visit 2 to 5, 500 and 750 mg/day vs placebo) was −0.28. For the same compound, the “Reduction of serum CRP” value ([2]; higher two dose groups (250 mg BID and 250 mg TID), at 2 weeks, p=0.07) was 16%, the “Effect on serum sICAM-1” value [3] was “reduced significantly” and the “Reduction of plasma MPO levels” value [4] was 37%.
